Measured values reported in US20250195468A1, “METHODS AND COMPOSITIONS FOR TREATING COLORECTAL CANCER WITH INDOXYL SULFATE” (National Institute of Immunology, priority 2023, published 2025).

Tested on: Balb/c mice
Assay: Animal study: effect on normal colonic cells (organ length, body weight, histology, symptoms)
Conditions: control groups (negative / positive control), 12 weeks
Procedure: Wild-type Balb/c mice were obtained from Jackson Laboratory, USA, and housed in plastic cages with free access to water and food. The mice were randomly assigned to five test groups, which included three control groups: vehicle control, negative control (100 mM sodium propionate), and positive control (AOM (Azoxymethane)/DSS). Additionally, there were two experimental groups receiving 100 mM of indoxyl sulfate, one via intraperitoneal (IP) administration and the other via intrarectal (IR) administration. Each group consisted of six mice. In the AOM/DSS group, AOM was injected intraperitoneally at a dosage of 10 mg/kg bodyweight. The AOM was injected only once on the 1st day of experiment. The positive control mice received 2% DSS for 7 days in the first week, fourth week, and seventh week. […]
The colon was collected from each mouse for subsequent histology studies. […] Various parameters, including tumor localization (proximal or distal bowel, rectum, cecum, ileocecal valve), tumor number, cancer stage (dysplasia/adenoma or adenocarcinoma, determined by infiltration into the muscular mucosa), immune cell infiltration, and inflammation, were assessed. Bowel inflammation was evaluated by observing immune cell infiltration and the presence or absence of mucous membranes using a 10× objective. […]

Structure (SMILES): CCC(=O)[O-].[Na+] [Propionate, sodium propionate]
- Length of large intestine (mean ± SD): 9.98 ± 0.67 cm
- Length of spleen (mean ± SD): 1.5 ± 0.08 cm
